Results from US20210002265A1, “PYRAZOLE DERIVATIVES AS INHIBITORS OF THE WNT SIGNALLING PATHWAY” (Université de Lausanne, priority 2018, published 2021).

How the values were obtained:
[1] = system: TNBC cell lines; conditions: different TNBC cell lines, FIG. 8
Description: TNBC cell lines were seeded at previously determined concentrations in 6-well plates and incubated for 24 h. The cells were then treated with the compounds or DMSO only and the colony formation followed daily by visual inspection. Once the colonies were big enough (70-100 cells), the cells were fixed with a solution of 4% PFA in PBS pH 7.4. The colonies were then stained using a solution of 1% Crystal violet and images taken of the individual wells to count the number of colonies. The colony counting and analysis was done using ImageJ.

[2] = microsomal assay
[3] = system: Wnt pathway (Wnt3a-stimulated) in BT-20 cells; assay: TOPFlash reporter assay, Wnt3a activation; assay type: cell-based; conditions: for Efficacy (%): average efficacy, BT-20 TOPFlash; for Efficacy (%) / IC50: Wnt3a 250 ng/ml; for IC50: average potency, BT-20 cells stably transfected with TOPFlash reporter
Excerpt: A commercial (ChemDiv Inc., San Diego, Calif., US) small molecule library (high-diversity GPCR-targeted compound library containing 1000 compounds selected by ChemDiv focusing on maximizing chemical diversity from the 40′000 GPCR-targeted compound library [see http://www.chemdiv.com, particularly http://www.chemdiv.com/gpcr-target-platform-library-2/]) containing 1000 compounds was screened for Wnt pathway inhibitory effect using the TOPflash assay. […] In a first round of screening, 34 randomly chosen compounds resembling compound 1, but presenting some intravariance were tested for their ability to inhibit the Wnt pathway, using the TOPFLash reporter assay.
(§1) For the screens, BT-20 cells, stably transfected with the TOPFlash reporter plasmid were seeded at 15K cells per well in white tissue-culture-treated 96-well plates (Greiner) and incubated overnight. If needed, the cells were additionally transfected with the pRL-CMV plasmid using the X-tremeGENE HP DNA transfection reagent (Roche) according to the manufacturer's protocol and again incubated overnight. […] The medium was then removed and 12 μl 10% sucrose solution was added to the cells to prevent drying. […] Data was analyzed using the Prism 6 Software (GraphPad).

[4] = system: Renilla luciferase expressed under control of CMV promoter; conditions: FIG. 2
Description: (§2) Wnt-3a whole pathway activation (circle); LiCl activation of downstream elements only (square); Renilla, control for cell well-being (triangle).
as §1

[5] = system: Wnt pathway downstream part activated by LiCl; conditions: LiCl activation, FIG. 2
Description: as §2, §1

[6] = In vivo pharmacokinetic profiling and tissue analysis; conditions: tumour bearing mice
Description: An in vivo experiment was performed to get a rough ADME profile and a first impression of the tolerability of the compounds and to determine any acute toxicity. […] Blood samples were taken at regular intervals for studying the kinetics.

[7] = system: BT-20; conditions: MTT, BT-20, 72 h
Description: (§3) TNBC cell lines and were seeded at previously determined concentrations in 96-well plates and incubated for 24 h. The next day, the medium was replaced with medium containing either compound or the respective amount of DMSO for the controls. The proliferation was measured after 72 h, by addition of a solution of 1 mg/ml thiazolyl blue (Roth) in PBS, further incubation for 2 h-4 h at 37° C., and lysis of the cells by addition of 50 μl DMSO. The absorbance was read at 570 nm using the Victor3 Multilabel Counter (PerkinElmer).

[8] = system: HCC 1806; conditions: MTT, HCC 1806, 72 h
Description: as §3

[9] = system: HCC 1395; conditions: MTT, HCC 1395, 72 h
Description: as §3

[10] = system: MDA-MB 468; conditions: MTT, MDA-MB 468, 72 h
Description: as §3

[11] = system: MDA-MB 231; conditions: MTT, MDA-MB 231, 72 h
Description: as §3

[12] = system: active β-catenin in HCC 1395 cells; conditions: 50 μM, FIG. 4
Description: (§4) Cells were seeded to 70-80% confluency in 12-well plates and incubated overnight. The medium was then changed for medium containing compound or DMSO and the cells pre-incubated for 1 h. […] After washing the cells with ice cold PBS, the cells were lysed by addition of 70 μl RIPA buffer (50 mM Tris pH 7.4, 1% Triton X-100, 0.1% SDS, 150 mM NaCl, 1 mM EDTA, 1 mM DTT, protease inhibitors (Roche)) containing phosphatase inhibitors if needed (4 mM NaF, 4 mM Imidazole, 2.3 mM Na2MoO4, 4 mM Na3VO4, 8 mM M C4H4Na2O6*2H2O, 2 mM Na4P2O7, 2 mM β-Glycerophosphate) and shaking 10 min on ice. The cell lysate was collected and centrifuged for 15 min at 16000 g at 4° C. to remove cell debris. The samples were equilibrated using the Bradford method and further separated and analyzed by SDS-PAGE and Western blot respectively.

[13] = system: total β-catenin in L-cells; conditions: 50 μM, FIG. 4
Description: as §4

[14] = system: cytoplasmic β-catenin in BT-20 cells; conditions: 50 μM, Wnt3a or LiCl, FIG. 3
Description: as §4

[15] = system: DVL2 in HCC 1395 cells; conditions: 50 μM, FIG. 5
Description: as §4
(§5) The effects of compound 1 on the upper-level phosphoprotein DVL was examined. The phosphoprotein DVL is phosphorylated on over 40 sites upon Wnt-pathway activation, which can be detected as a shift when analysed by electrophoresis.

[16] = system: DVL2 and DVL3 in L-cells; conditions: 50 μM, FIG. 5
Description: as §4, §5

| Compound | CYP stability (% compound after 60 min) [2] | CYP UGT stability (% compound after 60 min) [2] | Efficacy (%) [3] | IC50 [3] | mean concentration achieved in the breast [6] | Tissue concentration, Breast [6] | Tissue concentration, Faeces [6] | Tissue concentration, Intestine [6] | Tissue concentration, Liver [6] | Tissue concentration, Lung [6] | Tissue concentration, Plasma [6] | Tissue concentration, Tumor [6] | Tissue concentration, Urine [6] | further results |
| --- | --- | --- | --- | --- | --- | --- | --- | --- | --- | --- | --- | --- | --- | --- |
| Cc1ccc2[nH]cc(CCNC(=O)CCc3cn(-c4ccccc4)nc3-c3ccc4c(c3)OCO4)c2c1 [Compound 1] | 33% | 49% | 86.3% | 11 µM | around 20 μM | 92.1 µM | 0.1 µM | 44.0 µM | 136.9 µM | 6.2 µM | 3.9 µM | 154.3 µM | 6.6 µM | colony formation [1]: inhibition of colony formation; suppression of Wnt3a-stimulated pathway activation ([3]; Wnt-3a whole pathway activation, FIG. 2): efficient in specific suppression of the Wnt3a-stimulated pathway activation; levels of Renilla luciferase (cell well-being control) [4]: not changing the levels of Renilla luciferase; inhibition when downstream part of the pathway is activated by LiCl [5]: do not inhibit; Efficiency (%) [7]: 90%; IC50 [7]: 15 µM; Efficiency (%) [8]: 79%; IC50 [8]: 18 µM; Efficiency (%) [9]: 90%; IC50 [9]: 8 µM; Efficiency (%) [10]: 93%; IC50 [10]: 12 µM; Efficiency (%) [11]: 63%; IC50 [11]: 6 µM; active β-catenin levels [12]: decrease in the active-β catenin levels; total β-catenin levels [13]: clear decrease; accumulation of cytoplasmic β-catenin [14]: essentially recapitulating the results obtained using TopFlash; DVL2 phosphorylation shift upon Wnt3a stimulation [15]: clearly inhibited the shift; DVL2 and DVL3 phosphorylation shift upon Wnt3a stimulation [16]: clearly inhibited the shift |
| O=C(CCc1cn(-c2ccccc2)nc1-c1ccc2c(c1)OCO2)NCCc1ccccc1 [Compound 11] | – | – | 88.4% | 5.2 µM | – | – | – | – | – | – | – | – | – | – |
| O=C(Nc1ccccc1)N1CCC(n2nc(-c3ccccc3)cc2-c2ccccc2)CC1 [Compound 26] | – | – | 72.7% | 16.5 µM | – | – | – | – | – | – | – | – | – | – |
| O=C(CCc1cn(-c2ccccc2)nc1-c1ccc2c(c1)OCO2)NCCc1cccs1 [Compound 13] | – | – | 77.0% | 6.5 µM | – | – | – | – | – | – | – | – | – | – |
| Cc1ccccc1Cn1cc(-c2ccncc2)cc1C(=O)N1CCN(c2ccccc2)CC1 [Compound 24] | 67% | 76% | 94.8% | 18.3 µM | around 8 μM | 8.6 µM | 0.1 µM | 0.3 µM | 0.3 µM | 0.3 µM | 0.3 µM | 0.3 µM | 0.1 µM | – |
| O=C(CCc1cn(-c2ccccc2)nc1-c1ccc2c(c1)OCO2)NCCc1ccco1 [Compound 7] | – | – | 85.0% | 15.2 µM | – | – | – | – | – | – | – | – | – | – |
